In PMC5739597, “Discovery and evaluation of triple inhibitors of VEGFR-2, TIE-2 and EphB4 as anti-angiogenic and anti-cancer agents” (Oncotarget, 2017):
Read-outs that look alike come from different tables or passages of the source.

Assays:
c-Kit = c-Kit (Homo sapiens, UniProt P10721); experiment: Kinase-Glo Plus RTK selectivity assay, c-Kit; type: biochemical; settings: 10 μM ATP
Protocol: (§1) A 50 μL reaction mixture contains 40 mM Tris, pH 7.4, 10 mM MgCl2, 0.1 mg/ml BSA, 1 mM DTT, 10 μM ATP, kinase and substrate (0.2 mg/mL Poly(Glu, Tyr)/10 μM ATP). The test compounds were diluted in 10% DMSO and 5 μL of the dilution was added to a 50 μL reaction so that the final concentration of DMSO is 1% in all of reactions. The assay was performed using Kinase-Glo Plus luminescence kinase assay kit. It measures kinase activity by quantitating the amount of ATP remaining in solution following a kinase reaction. The luminescent signal from the assay is correlated with the amount of ATP present and is inversely correlated with the amount of kinase activity. The IC50 values were calculated using nonlinear regression with normalized dose−response fit using Prism GraphPad software.

VEGFR-1 = VEGFR-1 (Homo sapiens, UniProt P17948); experiment: Kinase-Glo Plus RTK selectivity assay, VEGFR-1; type: biochemical; settings: 10 μM ATP
Chain of VEGFR-1 (P17948 27-1338, species assumed): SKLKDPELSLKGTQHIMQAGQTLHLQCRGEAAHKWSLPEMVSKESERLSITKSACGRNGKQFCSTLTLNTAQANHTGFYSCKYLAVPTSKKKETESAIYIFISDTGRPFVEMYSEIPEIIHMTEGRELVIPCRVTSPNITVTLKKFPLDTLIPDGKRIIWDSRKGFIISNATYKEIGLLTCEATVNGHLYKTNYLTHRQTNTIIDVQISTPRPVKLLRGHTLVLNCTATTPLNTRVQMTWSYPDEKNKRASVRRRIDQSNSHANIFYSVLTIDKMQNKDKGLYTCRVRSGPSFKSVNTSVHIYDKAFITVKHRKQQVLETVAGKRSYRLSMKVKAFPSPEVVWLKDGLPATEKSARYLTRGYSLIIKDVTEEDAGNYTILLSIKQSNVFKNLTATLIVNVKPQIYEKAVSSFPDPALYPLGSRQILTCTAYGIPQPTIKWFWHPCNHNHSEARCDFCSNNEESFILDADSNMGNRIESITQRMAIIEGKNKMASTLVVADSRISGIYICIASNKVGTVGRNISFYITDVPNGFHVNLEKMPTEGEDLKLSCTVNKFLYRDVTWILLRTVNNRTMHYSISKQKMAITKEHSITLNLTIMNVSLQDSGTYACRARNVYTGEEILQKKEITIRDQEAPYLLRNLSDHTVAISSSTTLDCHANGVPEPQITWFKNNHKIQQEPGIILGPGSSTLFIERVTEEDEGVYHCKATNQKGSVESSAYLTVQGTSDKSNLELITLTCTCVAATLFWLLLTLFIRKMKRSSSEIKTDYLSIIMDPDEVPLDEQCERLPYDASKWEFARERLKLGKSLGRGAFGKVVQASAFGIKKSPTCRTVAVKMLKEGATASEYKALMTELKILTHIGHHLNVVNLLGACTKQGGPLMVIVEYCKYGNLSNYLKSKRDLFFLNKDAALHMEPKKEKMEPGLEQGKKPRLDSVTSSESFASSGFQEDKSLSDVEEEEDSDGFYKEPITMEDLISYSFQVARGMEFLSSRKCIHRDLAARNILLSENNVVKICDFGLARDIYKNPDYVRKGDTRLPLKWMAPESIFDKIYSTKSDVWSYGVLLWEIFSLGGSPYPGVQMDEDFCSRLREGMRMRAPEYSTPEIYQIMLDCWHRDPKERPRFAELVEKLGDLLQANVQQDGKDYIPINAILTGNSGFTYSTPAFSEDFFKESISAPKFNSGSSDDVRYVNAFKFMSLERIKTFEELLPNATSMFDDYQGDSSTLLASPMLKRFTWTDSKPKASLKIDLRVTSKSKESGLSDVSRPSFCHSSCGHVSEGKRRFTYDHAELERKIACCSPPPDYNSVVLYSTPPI
Protocol: as §1

EGFR = EGFR (Homo sapiens, UniProt P00533); experiment: Kinase-Glo Plus RTK selectivity assay, EGFR; type: biochemical; settings: 10 μM ATP
Protocol: as §1

EphB4 = biological target: T1, EphB4 (Homo sapiens, UniProt P54760); experiment: ADP-Glo in vitro RTK inhibition assay, EphB4; type: biochemical; settings: ATP 50 μM
T1 sequence (P54760 16-987): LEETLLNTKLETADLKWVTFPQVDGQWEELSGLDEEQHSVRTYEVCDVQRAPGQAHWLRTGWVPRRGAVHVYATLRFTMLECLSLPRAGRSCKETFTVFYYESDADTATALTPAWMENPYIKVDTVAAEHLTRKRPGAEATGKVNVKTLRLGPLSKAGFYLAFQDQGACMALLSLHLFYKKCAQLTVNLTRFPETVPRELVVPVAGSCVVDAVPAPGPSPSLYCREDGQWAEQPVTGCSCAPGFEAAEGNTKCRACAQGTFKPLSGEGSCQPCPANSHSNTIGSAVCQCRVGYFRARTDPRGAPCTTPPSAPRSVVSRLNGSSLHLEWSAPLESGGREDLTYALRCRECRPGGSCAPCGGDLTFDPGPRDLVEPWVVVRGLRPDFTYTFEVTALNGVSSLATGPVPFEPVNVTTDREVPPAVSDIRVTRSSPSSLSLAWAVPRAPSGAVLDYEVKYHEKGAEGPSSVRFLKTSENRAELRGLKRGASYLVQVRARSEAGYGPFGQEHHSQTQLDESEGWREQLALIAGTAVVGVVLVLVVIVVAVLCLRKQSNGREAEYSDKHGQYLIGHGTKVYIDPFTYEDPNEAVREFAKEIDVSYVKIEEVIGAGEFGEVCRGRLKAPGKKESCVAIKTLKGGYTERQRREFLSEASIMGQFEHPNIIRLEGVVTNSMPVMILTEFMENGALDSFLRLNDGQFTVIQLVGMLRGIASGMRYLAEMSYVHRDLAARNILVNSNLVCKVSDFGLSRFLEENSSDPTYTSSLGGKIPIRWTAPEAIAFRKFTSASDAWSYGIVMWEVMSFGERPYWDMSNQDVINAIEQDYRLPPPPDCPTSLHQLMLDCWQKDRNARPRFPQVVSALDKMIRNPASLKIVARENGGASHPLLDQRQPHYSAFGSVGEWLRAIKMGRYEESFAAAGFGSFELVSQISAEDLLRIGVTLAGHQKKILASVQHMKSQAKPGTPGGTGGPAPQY
Protocol: (§2) In order to validate the direct effect of title compounds on VEGFR-2, Tie-2, and EphB4 kinases, we performed in vitro assay using the ADP-Glo Kinase Assay Kit (Promega, Wisconsin, USA).
(§3) The kinase assay was performed in a reaction mixture of final volume of 10 μL. […] The plate was incubated at 30°C for 1 h. After the plate was cooled at room temperature for 5 min, 5 μL of ADP-Glo reagent was added into each well to stop the reaction and consume the remaining […] within 40 min. At the end, 10 μL of kinase detection reagent was added into the well and incubated for 30 min to produce a luminescence signal. […] The assay plate was incubated at 30°C for 4 h. After the plate was cooled at room temperature for 5 min, 5 μL of ADP-Glo reagent was added into each well to stop the reaction and consume the remaining […] within 1 h. At the end, 10 μL of kinase detection reagent was added into each well and incubated for 30 min to produce a luminescence signal. The luminescence was read by VICTOR-X multi-label plate reader.

FGFR-1 = FGFR-1 (Homo sapiens, UniProt P11362); experiment: Kinase-Glo Plus RTK selectivity assay, FGFR-1; type: biochemical; settings: 10 μM ATP
Chain of FGFR-1 (P11362 22-822, species assumed): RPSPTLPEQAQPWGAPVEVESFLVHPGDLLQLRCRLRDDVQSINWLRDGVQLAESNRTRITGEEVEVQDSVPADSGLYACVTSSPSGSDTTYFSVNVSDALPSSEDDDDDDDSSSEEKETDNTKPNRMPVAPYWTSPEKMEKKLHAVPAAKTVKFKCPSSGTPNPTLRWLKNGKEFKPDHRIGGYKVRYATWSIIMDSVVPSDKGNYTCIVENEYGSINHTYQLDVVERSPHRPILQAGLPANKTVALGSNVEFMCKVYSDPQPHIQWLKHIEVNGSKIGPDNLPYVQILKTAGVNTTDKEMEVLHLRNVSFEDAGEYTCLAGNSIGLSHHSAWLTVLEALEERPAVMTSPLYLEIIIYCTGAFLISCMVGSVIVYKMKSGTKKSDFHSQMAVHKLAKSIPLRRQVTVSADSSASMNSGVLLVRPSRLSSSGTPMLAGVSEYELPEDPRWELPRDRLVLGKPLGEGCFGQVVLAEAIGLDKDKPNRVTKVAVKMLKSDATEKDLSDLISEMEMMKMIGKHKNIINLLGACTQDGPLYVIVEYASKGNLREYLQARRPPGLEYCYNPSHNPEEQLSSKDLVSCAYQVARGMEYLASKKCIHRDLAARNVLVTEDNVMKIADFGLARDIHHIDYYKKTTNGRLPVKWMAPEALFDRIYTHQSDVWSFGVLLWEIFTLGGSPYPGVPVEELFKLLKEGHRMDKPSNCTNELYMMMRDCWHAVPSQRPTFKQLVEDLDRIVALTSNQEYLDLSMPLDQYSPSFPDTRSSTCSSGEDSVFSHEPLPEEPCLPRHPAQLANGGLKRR
Protocol: The assay was performed using Kinase-Glo Plus luminescence kinase assay kit. It measures kinase activity by quantitating the amount of ATP remaining in solution following a kinase reaction. The luminescent signal from the assay is correlated with the amount of ATP present and is inversely correlated with the amount of kinase activity.

TIE-2 = TIE-2 (Homo sapiens, UniProt Q02763); experiment: ADP-Glo in vitro RTK inhibition assay, TIE-2; type: biochemical; settings: ATP 50 μM
Protocol: as §2, §3

EA.hy926 = experiment: Human endothelial cell (EA.hy926) viability assay, CCK-8; type: cell-based; settings: CCK-8, 24 h treatment, read-out: Inhibition of human endothelial cell viability, EA.hy926 IC50
Protocol: In order to determine the anti-angiogenic effect of these multi-target inhibitors, we evaluated their effect on HECs (EA.hy926) viability using cell counting kit-8 (CCK-8) method.
The viability of HECs (EA.hy926) was assessed using the cell counting kit-8 (CCK-8, Sigma, USA) assay according to the manufacturer's instruction. […] After incubation at 37°C for 48 h, the cells were treated with tested compounds at various concentrations for 24 h. Subsequently, premixed CCK-8 and medium (10 μL) were added into the 96-well plates to monitor cell viability and were incubated at 37°C for 2 h. The number of viable cells was assessed by measurement of absorbance at 450 nm by a microplate reader. The viability rate was calculated as experimental OD value/control OD value.

FGFR-4 = FGFR-4 (Homo sapiens, UniProt P22455); experiment: Kinase-Glo Plus RTK selectivity assay, FGFR-4; type: biochemical; settings: 10 μM ATP
Chain of FGFR-4 (P22455 22-802, species assumed): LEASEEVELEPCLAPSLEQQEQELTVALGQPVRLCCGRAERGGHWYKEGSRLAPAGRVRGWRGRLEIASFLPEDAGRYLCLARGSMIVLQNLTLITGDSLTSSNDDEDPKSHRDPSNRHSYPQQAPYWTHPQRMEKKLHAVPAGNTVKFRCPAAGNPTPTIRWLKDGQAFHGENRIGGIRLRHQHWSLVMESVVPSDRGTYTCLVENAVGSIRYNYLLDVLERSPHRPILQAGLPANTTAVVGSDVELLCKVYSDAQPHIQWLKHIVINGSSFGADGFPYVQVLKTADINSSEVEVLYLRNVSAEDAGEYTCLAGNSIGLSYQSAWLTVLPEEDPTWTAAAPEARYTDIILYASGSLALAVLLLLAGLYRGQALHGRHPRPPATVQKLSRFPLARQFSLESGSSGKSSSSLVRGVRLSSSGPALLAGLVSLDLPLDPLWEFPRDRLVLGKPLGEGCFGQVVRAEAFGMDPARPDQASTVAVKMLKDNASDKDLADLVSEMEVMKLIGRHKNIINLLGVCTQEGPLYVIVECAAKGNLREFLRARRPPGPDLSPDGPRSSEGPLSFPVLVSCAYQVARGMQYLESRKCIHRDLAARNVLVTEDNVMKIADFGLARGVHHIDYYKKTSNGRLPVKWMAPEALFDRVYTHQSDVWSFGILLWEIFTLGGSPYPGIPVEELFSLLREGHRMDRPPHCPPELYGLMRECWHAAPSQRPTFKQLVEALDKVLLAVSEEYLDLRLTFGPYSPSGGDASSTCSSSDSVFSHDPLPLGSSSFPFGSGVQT
Protocol: as §1

B-Raf = B-Raf (Homo sapiens, UniProt P15056); experiment: Kinase-Glo Plus RTK selectivity assay, B-Raf; type: biochemical; settings: 10 μM ATP
Chain of B-Raf (P15056 whole entry, species assumed): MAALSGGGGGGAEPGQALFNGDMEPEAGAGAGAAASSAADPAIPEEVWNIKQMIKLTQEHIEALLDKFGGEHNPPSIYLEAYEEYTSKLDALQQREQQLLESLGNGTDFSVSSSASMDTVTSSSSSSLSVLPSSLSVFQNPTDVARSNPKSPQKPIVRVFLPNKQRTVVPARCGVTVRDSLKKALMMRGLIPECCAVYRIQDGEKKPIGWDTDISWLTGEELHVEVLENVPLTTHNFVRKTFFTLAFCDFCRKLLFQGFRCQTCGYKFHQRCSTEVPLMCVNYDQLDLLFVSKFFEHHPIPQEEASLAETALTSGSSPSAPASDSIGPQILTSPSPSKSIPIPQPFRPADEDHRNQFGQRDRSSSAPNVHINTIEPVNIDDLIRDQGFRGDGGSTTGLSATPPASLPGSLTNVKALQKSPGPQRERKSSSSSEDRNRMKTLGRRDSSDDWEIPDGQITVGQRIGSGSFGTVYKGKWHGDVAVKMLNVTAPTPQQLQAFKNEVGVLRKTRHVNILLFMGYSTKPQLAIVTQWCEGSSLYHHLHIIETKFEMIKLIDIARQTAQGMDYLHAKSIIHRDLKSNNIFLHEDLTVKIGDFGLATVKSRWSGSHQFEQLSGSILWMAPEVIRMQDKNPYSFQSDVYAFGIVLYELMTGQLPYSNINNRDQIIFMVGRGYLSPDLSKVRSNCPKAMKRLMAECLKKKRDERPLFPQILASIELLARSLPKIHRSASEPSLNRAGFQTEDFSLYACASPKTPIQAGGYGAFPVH
Protocol: as §1

VEGFR-2 [1] = biological target: T2, VEGFR-2 (Homo sapiens, UniProt P35968); experiment: ADP-Glo in vitro RTK inhibition assay, VEGFR-2; type: biochemical; settings: ATP 50 μM
T2 sequence (P35968 20-1356): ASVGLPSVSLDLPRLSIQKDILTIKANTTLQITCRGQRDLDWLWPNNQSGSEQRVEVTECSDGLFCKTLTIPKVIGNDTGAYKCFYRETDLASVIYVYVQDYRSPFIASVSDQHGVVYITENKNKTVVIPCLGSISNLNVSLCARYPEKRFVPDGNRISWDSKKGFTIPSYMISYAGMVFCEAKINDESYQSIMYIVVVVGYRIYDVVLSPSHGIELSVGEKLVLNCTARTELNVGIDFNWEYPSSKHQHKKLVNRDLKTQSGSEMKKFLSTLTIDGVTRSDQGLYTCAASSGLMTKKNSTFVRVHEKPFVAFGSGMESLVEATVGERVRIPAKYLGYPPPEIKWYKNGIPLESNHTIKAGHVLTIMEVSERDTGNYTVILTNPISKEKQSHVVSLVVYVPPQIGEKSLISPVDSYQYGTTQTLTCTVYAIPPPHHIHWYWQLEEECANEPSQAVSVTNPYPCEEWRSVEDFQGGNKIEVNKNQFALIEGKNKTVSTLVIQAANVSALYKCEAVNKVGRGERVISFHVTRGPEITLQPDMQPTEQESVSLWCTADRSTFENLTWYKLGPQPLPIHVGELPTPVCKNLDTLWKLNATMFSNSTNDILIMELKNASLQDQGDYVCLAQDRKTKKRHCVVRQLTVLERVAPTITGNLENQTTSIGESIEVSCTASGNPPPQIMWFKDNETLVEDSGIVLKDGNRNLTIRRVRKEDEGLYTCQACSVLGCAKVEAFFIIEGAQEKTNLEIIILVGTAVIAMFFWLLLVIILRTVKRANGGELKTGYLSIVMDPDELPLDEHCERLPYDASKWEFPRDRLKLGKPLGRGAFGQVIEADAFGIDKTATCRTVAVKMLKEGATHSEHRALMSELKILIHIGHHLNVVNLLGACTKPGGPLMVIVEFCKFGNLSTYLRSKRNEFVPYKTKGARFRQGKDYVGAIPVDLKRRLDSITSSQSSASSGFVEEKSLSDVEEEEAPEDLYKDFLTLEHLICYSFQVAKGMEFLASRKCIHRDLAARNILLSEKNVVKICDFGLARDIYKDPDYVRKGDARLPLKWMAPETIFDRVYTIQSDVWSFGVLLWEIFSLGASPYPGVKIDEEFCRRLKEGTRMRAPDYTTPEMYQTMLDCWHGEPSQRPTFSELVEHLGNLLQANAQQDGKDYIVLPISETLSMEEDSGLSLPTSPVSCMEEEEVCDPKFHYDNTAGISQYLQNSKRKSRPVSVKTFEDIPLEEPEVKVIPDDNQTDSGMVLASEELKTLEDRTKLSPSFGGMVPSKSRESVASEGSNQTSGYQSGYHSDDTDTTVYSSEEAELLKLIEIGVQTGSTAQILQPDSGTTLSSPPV
Protocol: as §2, §3

VEGFR-2 [2] = biological target: T2, VEGFR-2; experiment: VEGFR-2/cell membrane chromatography (CMC) affinity evaluation; type: binding; settings: flow rate 0.6 mL/min, 37°C, 5 mM PBS pH 7.4, 270 nm
Protocol: In previous studies, artificial cultures highly expressing VEGFR-2 on HEK293 cell lines were constructed. […] Chromatographic conditions: 10 mm×2.0 mm; flow rate0.6 mL/min; column temperature 37°C; mobile phase 5 mM PBS, pH 7.4; detection wavelength 270 nm.
The VEGFR-2 cell membrane stationary phase was prepared as previous reported. Aqueous ammonium acetate buffer solution (pH 7.4, 5 mM) was pumped at a flow rate of 0.2 mL/min as the mobile phase after VEGFR-2/CMC column was loaded onto the chromatography system at the temperature of 37°C. […] The mobile phase was 5.0 mM phosphate burred saline with a 0.6 mL/min flow rate at a column temperature of 37°C. The detected wavelength was 270 nm. The test compound was injected into the VEGFR-2/CMC column and their retention characteristics were identified to evaluate their affinity with VEGFR-2.

Row | Compound | IC50 (c-Kit) [nM] | IC50 (VEGFR-1) [nM] | IC50 (EGFR) [nM] | IC50 (EphB4) [nM] | IC50 (FGFR-1) [nM] | IC50 (TIE-2) [nM] | IC50 (EA.hy926) [nM] | IC50 (EA.hy926; Homo sapiens, EA.hy 926, 24 h) [nM] | IC50 (FGFR-4) [nM] | IC50 (B-Raf) [nM] | melting point [°C] | IC50 (VEGFR-2 [1]) [nM] | Retention time on VEGFR-2/cell membrane stationary phase column (VEGFR-2 [2]) [min]
1 | O=C(Nc1ccc(-c2ccc3c(=O)[nH]cnc3c2)cc1)Nc1ccccc1F [QDAU4, 1-(2-fluorophenyl)-3-(4-(4-oxo-3,4-dihydroquinazolin-7-yl)phenyl)urea] | > 500 | 68.3 | 113 | 13.9 | 166 | 4.91 | 8640 | < 10000 | 83.4 | 136 | > 300 | 1.91 | 
2 | COc1cc2c(Nc3ccc(Br)cc3F)ncnc2cc1OCC1CCN(C)CC1 [vandetanib, reference compound] |  |  |  |  |  |  |  |  |  |  |  |  | 4.5
